Results on one compound are retold here after patent US20250368662A1, “INHIBITORS OF INDOLEAMINE 2,3-DIOXYGENASE 1 (IDO1) AND TRYPTOPHAN 2,3-DIOXYGENASE (TDO) AND METHODS OF USING SAME” (University of South Carolina, priority 2024, published 2025).

This series deals with EO771 cells. Briefly: Mouse model of breast cancer (EO771 cells in mammary fat pads). The class given is in vivo. The note with it: female C57Bl/6 mice, i.p. 10 mg/kg every other day for 3 weeks. From the text:
In a mouse model of breast cancer, 8-week-old female C57Bl/6 mice were inoculated with EO771 cells in the 4th pair of mammary fat pads. […] Mice were sacrificed 24 days after cell inoculation.

For the compound `O=C(NCCCCC1CN2C(c3ccc4ccccc4c3)=CSC2=N1)Nc1ccccc1` (centres unmarked) [USCYL01], the body weight result is reported as “did not affect”; the “weights of the heart, liver, lungs, kidney, brain, and lymph nodes” value was “did not affect”.
